Patent US9101148B2, “Carbohydrate modifying agent and drinks containing the modifying agent” (SBS Food Group LLC, priority 2001, dated 2015)

System: mutans streptococci
Experiment: Inhibition of growth and adherence of mutans streptococci in vitro by zinc salts
Format: cell-based
Details: 0.5% zinc solution
Text: In another preferred embodiment of the invention, the formulation includes one or more zinc salt or other source of the zinc ion. Metabolically, zinc is a critical nutrient in the synthesis of insulin and the metabolism of carbohydrates. From a dental perspective, cariogenic bacteria enzymatically produce an insoluble glucan deposit from simple sugars present in the mouth that firmly adheres to the enamel tooth surface.

[Cl-].[Cl-].[Zn+2] [zinc chloride]
adherence of mutans streptococci: inhibited
growth of mutans streptococci: inhibited

zinc ascorbate
adherence of mutans streptococci: inhibited
growth of mutans streptococci: inhibited
